Measurements: patent publication US8143263B2, “Therapeutic agents” (Astrazeneca AB, priority 2008, dated 2012)

The molecules below were run against T1, recombinant human pancreatic GLK (Homo sapiens, UniProt P35557) (assay: biochemical).
T1 sequence (P35557 1-465): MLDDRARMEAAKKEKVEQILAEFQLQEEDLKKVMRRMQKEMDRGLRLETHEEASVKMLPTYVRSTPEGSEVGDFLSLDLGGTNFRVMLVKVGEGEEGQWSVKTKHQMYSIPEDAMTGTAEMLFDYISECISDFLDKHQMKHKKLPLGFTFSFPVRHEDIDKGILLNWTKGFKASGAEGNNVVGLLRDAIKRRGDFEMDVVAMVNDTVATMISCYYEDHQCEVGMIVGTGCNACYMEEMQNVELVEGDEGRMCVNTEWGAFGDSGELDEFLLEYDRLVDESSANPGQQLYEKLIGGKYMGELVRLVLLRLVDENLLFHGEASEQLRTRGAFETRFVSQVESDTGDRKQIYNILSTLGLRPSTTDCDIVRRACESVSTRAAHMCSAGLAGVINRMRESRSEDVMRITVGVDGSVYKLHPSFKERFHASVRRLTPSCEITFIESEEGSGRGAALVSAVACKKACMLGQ

`O=C(Nc1ccc(Cl)cn1)[C@H](CN1CC(O)C1)Oc1ncnc2c1cnn2-c1ncccc1Cl` [Example 165, (2S)—N-(5-chloropyridin-2-yl)-2-[1-(3-chloropyridin-2-yl)pyrazolo[4,5-e]pyrimidin-4-yl]oxy-3-(3-hydroxyazetidin-1-yl)propanamide] and `C[C@H](CO)OC[C@H](Oc1ncnc2c1cnn2-c1ncccc1Cl)C(=O)Nc1ccc(Cl)cn1` [Example 190, (2S)—N-(5-chloropyridin-2-yl)-2-(1-(3-chloropyridin-2-yl)-1H-pyrazolo[3,4-d]pyrimidin-4-yloxy)-3-((R)-1-hydroxypropan-2-yloxy)propanamide] are the same in EC50: 370 nM for the first, 370 nM for the second.

`Cc1c(Cl)cccc1-n1ncc2c(O[C@@H](COCCO)C(=O)Nc3ccc(C#N)cn3)ncnc21` [Example 166, (2S)-2-[1-(3-chloro-2-methylphenyl)pyrazolo[4,5-e]pyrimidin-4-yl]oxy-N-(5-cyanopyridin-2-yl)-3-(2-hydroxyethoxy)propanamide] and `Cc1c(F)cccc1-n1ncc2c(O[C@@H](COCCO)C(=O)Nc3ccc(C#N)cn3)ncnc21` [Example 168, (2S)—N-(5-cyanopyridin-2-yl)-2-[1-(3-fluoro-2-methylphenyl)pyrazolo[4,5-e]pyrimidin-4-yl]oxy-3-(2-hydroxyethoxy)propanamide] are within 1.5-fold of each other in EC50: 2900 nM for the first, 3900 nM for the second.

`Cc1ccc(NC(=O)[C@H](COCCO)Oc2ncnc3c2cnn3-c2cccc(Cl)c2C)nc1` [Example 167, (2S)-2-[1-(3-chloro-2-methylphenyl)pyrazolo[4,5-e]pyrimidin-4-yl]oxy-3-(2-hydroxyethoxy)-N-(5-methylpyridin-2-yl)propanamide] and `Cc1c(Cl)cccc1-n1ncc2c(O[C@@H](COCCO)C(=O)Nc3ccc(Cl)cn3)ncnc21` [Example 173, (2S)-2-[1-(3-chloro-2-methylphenyl)pyrazolo[4,5-e]pyrimidin-4-yl]oxy-N-(5-chloropyridin-2-yl)-3-(2-hydroxyethoxy)propanamide] are within 1.5-fold of each other in EC50: 1100 nM for the first, 920 nM for the second.

First: Cc1c(F)cccc1-n1ncc2c(O[C@@H](COCCO)C(=O)Nc3ccc(Cl)cn3)ncnc21 [Example 170, (2S)—N-(5-chloropyridin-2-yl)-2-[1-(3-fluoro-2-methylphenyl)pyrazolo[4,5-e]pyrimidin-4-yl]oxy-3-(2-hydroxyethoxy)propanamide]
Second: Cc1ccc(F)cc1-n1ncc2c(O[C@@H](COCCO)C(=O)Nc3ccc(Cl)cn3)ncnc21 [Example 180, (2S)—N-(5-chloropyridin-2-yl)-2-(1-(5-fluoro-2-methylphenyl)-1H-pyrazolo[3,4-d]pyrimidin-4-yloxy)-3-(2-hydroxyethoxy)propanamide]
The EC50 of the first is 1.6-fold higher: 1500 nM for the first, 940 nM for the second.

First: O=C(Nc1ccc(Cl)cn1)[C@H](COCCO)Oc1ncnc2c1cnn2-c1ccccc1Cl [Example 171, (2S)-2-[1-(2-chlorophenyl)pyrazolo[4,5-e]pyrimidin-4-yl]oxy-N-(5-chloropyridin-2-yl)-3-(2-hydroxyethoxy)propanamide]
Second: Cc1ccc(NC(=O)[C@H](COCCO)Oc2ncnc3c2cnn3-c2ccccc2Cl)nc1 [Example 194, (2S)-2-(1-(2-chlorophenyl)-1H-pyrazolo[3,4-d]pyrimidin-4-yloxy)-3-(2-hydroxyethoxy)-N-(5-methylpyridin-2-yl)propanamide]
The EC50 of the first is 1.8-fold lower: 330 nM for the first, 580 nM for the second.

Compared with `N#Cc1ccc(NC(=O)[C@H](COCCO)Oc2ncnc3c2cnn3-c2ccccc2Cl)nc1` [Example 172, (2S)-2-[1-(2-chlorophenyl)pyrazolo[4,5-e]pyrimidin-4-yl]oxy-N-(5-cyanopyridin-2-yl)-3-(2-hydroxyethoxy)propanamide], `Cc1ccc(F)cc1-n1ncc2c(O[C@@H](COCCO)C(=O)Nc3ccc(C#N)cn3)ncnc21` [Example 182, (2S)—N-(5-cyanopyridin-2-yl)-2-(1-(5-fluoro-2-methylphenyl)-1H-pyrazolo[3,4-d]pyrimidin-4-yloxy)-3-(2-hydroxyethoxy)propanamide] is 3.7-fold higher in EC50: 810 nM for the first, 3000 nM for the second. The first is the more potent here.

First: N#Cc1cccc(Cl)c1-n1ncc2c(O[C@@H](COCCO)C(=O)Nc3ccc(Cl)cn3)ncnc21 [Example 174, (2S)-2-(1-(2-chloro-6-cyanophenyl)-1H-pyrazolo[3,4-d]pyrimidin-4-yloxy)-N-(5-chloropyridin-2-yl)-3-(2-hydroxyethoxy)propanamide]
Second: Cc1ccc(NC(=O)[C@H](COCCO)Oc2ncnc3c2cnn3-c2c(Cl)cccc2C#N)nc1 [Example 176, (2S)-2-(1-(2-chloro-6-cyanophenyl)-1H-pyrazolo[3,4-d]pyrimidin-4-yloxy)-3-(2-hydroxyethoxy)-N-(5-methylpyridin-2-yl)propanamide]
The EC50 of the first is 1.7-fold lower: 230 nM for the first, 380 nM for the second.

Compared with `Cc1ccc(NC(=O)[C@H](CO[C@H](C)CO)Oc2ncnc3c2cnn3-c2c(Cl)cccc2C#N)nc1` [Example 175, (2S)-2-(1-(2-chloro-6-cyanophenyl)-1H-pyrazolo[3,4-d]pyrimidin-4-yloxy)-3-((R)-1-hydroxypropan-2-yloxy)-N-(5-methylpyridin-2-yl)propanamide], `C[C@H](CO)OC[C@H](Oc1ncnc2c1cnn2-c1ncccc1Cl)C(=O)Nc1ccc(C#N)cn1` [Example 189, (2S)-2-(1-(3-chloropyridin-2-yl)-1H-pyrazolo[3,4-d]pyrimidin-4-yloxy)-N-(5-cyanopyridin-2-yl)-3-((R)-1-hydroxypropan-2-yloxy)propanamide] is 2.2-fold higher in EC50: 270 nM for the first, 600 nM for the second. The first is the more potent here.

Going from `CC(C)OC[C@H](Oc1ncnc2c1cnn2-c1ncccc1Cl)C(=O)Nc1ccc(S(C)(=O)=O)cn1` [Example 177, (2S)-2-(1-(3-chloropyridin-2-yl)-1H-pyrazolo[3,4-d]pyrimidin-4-yloxy)-3-isopropoxy-N-(5-(methylsulfonyl)pyridin-2-yl)propanamide] to `CC(C)OC[C@H](Oc1ncnc2c1cnn2-c1ncccc1Cl)C(=O)Nc1ccc(C(=O)N(C)C)cn1` [Example 178, 6-((2S)-2-(1-(3-chloropyridin-2-yl)-1H-pyrazolo[3,4-d]pyrimidin-4-yloxy)-3-isopropoxypropanamido)-N,N-dimethylnicotinamide], the EC50 rises from 1500 nM to 4300 nM (2.9-fold).

Compared with `Cc1ccc(C)c(-n2ncc3c(O[C@@H](COCCO)C(=O)Nc4ccc(Cl)cn4)ncnc32)c1` [Example 179, (2S)—N-(5-chloropyridin-2-yl)-2-(1-(2,5-dimethylphenyl)-1H-pyrazolo[3,4-d]pyrimidin-4-yloxy)-3-(2-hydroxyethoxy)propanamide], `Cc1ccc(C#N)cc1-n1ncc2c(O[C@@H](COCCO)C(=O)Nc3ccc(Cl)cn3)ncnc21` [Example 185, (2S)—N-(5-chloropyridin-2-yl)-2-(1-(5-cyano-2-methylphenyl)-1H-pyrazolo[3,4-d]pyrimidin-4-yloxy)-3-(2-hydroxyethoxy)propanamide] is 6-fold higher in EC50: 620 nM for the first, 3700 nM for the second. The first is the more potent here.

Going from `Cc1ccc(NC(=O)[C@H](COCCO)Oc2ncnc3c2cnn3Cc2ccccc2)nc1` [Example 181, (S)-2-(1-benzyl-1H-pyrazolo[3,4-d]pyrimidin-4-yloxy)-3-(2-hydroxyethoxy)-N-(5-methylpyridin-2-yl)propanamide] to `Cc1ccc(NC(=O)[C@H](COCCO)Oc2ncnc3c2nnn3-c2ccccc2Cl)nc1` [Example 195, (2S)-2-(3-(2-chlorophenyl)-3H-[1,2,3]triazolo[4,5-d]pyrimidin-7-yloxy)-3-(2-hydroxyethoxy)-N-(5-methylpyridin-2-yl)propanamide], the EC50 falls from 3300 nM to 2000 nM (1.6-fold). The second is the more potent here.

Going from `Cc1ccc(C#N)cc1-n1ncc2c(O[C@@H](COCCO)C(=O)Nc3ccc(C#N)cn3)ncnc21` [Example 183, (2S)-2-(1-(5-cyano-2-methylphenyl)-1H-pyrazolo[3,4-d]pyrimidin-4-yloxy)-N-(5-cyanopyridin-2-yl)-3-(2-hydroxyethoxy)propanamide] to `Cc1ccc(NC(=O)[C@H](COCCO)Oc2ncnc3c2cnn3-c2cc(C#N)ccc2C)nc1` [Example 184, (2S)-2-(1-(5-cyano-2-methylphenyl)-1H-pyrazolo[3,4-d]pyrimidin-4-yloxy)-3-(2-hydroxyethoxy)-N-(5-methylpyridin-2-yl)propanamide], the EC50 falls from 7700 nM to 1500 nM (5.1-fold).

Going from `CCOC[C@H](Oc1ncnc2c1cnn2-c1cc(C)ccc1C)C(=O)Nc1ccc(C#N)cn1` [Example 186, (2S)—N-(5-cyanopyridin-2-yl)-2-(1-(2,5-dimethylphenyl)-1H-pyrazolo[3,4-d]pyrimidin-4-yloxy)-3-ethoxypropanamide] to `C[C@H](CO)OC[C@H](Oc1ncnc2c1cnn2-c1ncccc1Cl)C(=O)Nc1ccc(F)cn1` [Example 191, (2S)-2-(1-(3-chloropyridin-2-yl)-1H-pyrazolo[3,4-d]pyrimidin-4-yloxy)-N-(5-fluoropyridin-2-yl)-3-((R)-1-hydroxypropan-2-yloxy)propanamide], the EC50 falls from 1800 nM to 840 nM (2.1-fold).

Going from `Cc1cnc(NC(=O)[C@H](COC2CCC2)Oc2ncnc3c2cnn3-c2cnccc2C)cn1` [Example 188, (2S)-3-cyclobutoxy-N-(5-methylpyrazin-2-yl)-2-(1-(4-methylpyridin-3-yl)-1H-pyrazolo[3,4-d]pyrimidin-4-yloxy)propanamide] to `C[C@@H](CO)OC[C@H](Oc1ncnc2c1cnn2-c1ncccc1Cl)C(=O)Nc1ccc(F)cn1` [Example 192, (2S)-2-(1-(3-chloropyridin-2-yl)-1H-pyrazolo[3,4-d]pyrimidin-4-yloxy)-N-(5-fluoropyridin-2-yl)-3-((S)-1-hydroxypropan-2-yloxy)propanamide], the EC50 falls from 1100 nM to 360 nM (3.1-fold). The second is the more potent here.

`C[C@@H](CO)OC[C@H](Oc1ncnc2c1cnn2-c1ncccc1Cl)C(=O)Nc1ccc(Cl)cn1` [Example 193, (2S)—N-(5-chloropyridin-2-yl)-2-(1-(3-chloropyridin-2-yl)-1H-pyrazolo[3,4-d]pyrimidin-4-yloxy)-3-((S)-1-hydroxypropan-2-yloxy)propanamide] showed an EC50 of 3300 nM.
